Measured values taken from patent US11090319B2, “Therapeutic uses of pharmaceutical compositions comprising cyclic boronic acid ester derivatives” (Melinta Subsidiary Corp., priority 2010, dated 2021).

Tests used:
Assay in all cases: Ceftazidime MIC with fixed concentration of BLI
Assay type in all cases: cell-based
[1] = test system: ec310 Escherichia coli ACT-1; details: derivative at 10 μg/mL; ec310 ACT-1
Method: (§1) Next, ceftazidime potentiation activity of several cyclic boronic acid ester derivatives was tested using a larger panel of strains expressing β-lactamase hydrolyzing enzymes. Ceftazidime MICs were determined alone and in the presence of fixed concentrations of various cyclic boronic acid ester derivatives.

[2] = test system: EC1014 Escherichia coli DHA-1; details: derivative at 10 μg/mL; EC1014 DHA-1
Method: as §1

[3] = test system: ec308 Escherichia coli SHV-5; details: derivative at 10 μg/mL; ec308 SHV-5
Method: as §1

[4] = test system: EC1007 Escherichia coli KPC-3; details: derivative at 10 μg/mL; EC1007 KPC-3
Method: as §1

[5] = test system: ec302 Escherichia coli TEM-10; details: derivative at 10 μg/mL; ec302 TEM-10
Method: as §1

[6] = test system: EC1009 Escherichia coli TEM-10; details: derivative at 10 μg/mL; EC1009 TEM-10
Method: as §1

[7] = test system: KX1000 Klebsiella oxytoca OXA-2; details: derivative at 10 μg/mL; KX1000 OXA-2
Method: as §1

[8] = test system: KP1010 Klebsiella pneumoniae SHV-12; details: derivative at 10 μg/mL; KP1010 SHV-12
Method: as §1

[9] = test system: KP1008 Klebsiella pneumoniae KPC-2; details: derivative at 10 μg/mL; KP1008 KPC-2
Method: as §1

[10] = test system: PAM2035 Pseudomonas aeruginosa ampC mexA:tet; details: derivative at 10 μg/mL
Method: as §1

[11] = test system: ec307 Escherichia coli SHV-4; details: derivative at 10 μg/mL; ec307 SHV-4
Method: as §1

[12] = test system: ec303 Escherichia coli TEM-12; details: derivative at 10 μg/mL; ec303 TEM-12
Method: as §1

[13] = test system: PAM2005 Pseudomonas aeruginosa ampC; details: derivative at 10 μg/mL
Method: as §1

[14] = test system: KP1005 Klebsiella pneumoniae CTX-M-14; details: derivative at 10 μg/mL; KP1005 CTX-M-14
Method: as §1

[15] = test system: EC1004 Escherichia coli CMY-2; details: derivative at 10 μg/mL; EC1004 CMY-2
Method: as §1

[16] = test system: KP1012 Klebsiella pneumoniae SHV-18; details: derivative at 10 μg/mL; KP1012 SHV-18
Method: as §1

[17] = test system: KP1009 Klebsiella pneumoniae CTX-M-15; details: derivative at 10 μg/mL; KP1009 CTX-M-15
Method: as §1

[18] = test system: ec301 Escherichia coli TEM-6; details: derivative at 10 μg/mL; ec301 TEM-6
Method: as §1

[19] = test system: ec309 Escherichia coli MIR-1; details: derivative at 10 μg/mL; ec309 MIR-1
Method: as §1

[20] = test system: AB1054 Acinetobacter baumannii OXA-23; details: derivative at 10 μg/mL; AB1054 OXA-23
Method: as §1

[21] = test system: ec300 Escherichia coli TEM-3; details: derivative at 10 μg/mL; ec300 TEM-3
Method: as §1

[22] = test system: pa1063 Pseudomonas aeruginosa GES-1; details: derivative at 10 μg/mL; pa1063 GES-1
Method: as §1

[23] = test system: KP1007 Klebsiella pneumoniae OXA-10; details: derivative at 10 μg/mL; KP1007 OXA-10
Method: as §1

[24] = test system: ec306 Escherichia coli SHV-2; details: derivative at 10 μg/mL; ec306 SHV-2
Method: as §1

[25] = test system: EC1011 Escherichia coli TEM-26; details: derivative at 10 μg/mL; EC1011 TEM-26
Method: as §1

[26] = test system: EC1010 Escherichia coli CMY-6; details: derivative at 10 μg/mL; EC1010 CMY-6
Method: as §1

[27] = test system: KP1004 Klebsiella pneumoniae KPC-2; details: derivative at 10 μg/mL; KP1004 KPC-2
Method: as §1

[28] = test system: EC1008 Escherichia coli CTX-M3; details: derivative at 10 μg/mL
Method: as §1

[29] = test system: EC1006 Escherichia coli FOX-5; details: derivative at 10 μg/mL; EC1006 FOX-5
Method: as §1

[30] = test system: AB1057 Acinetobacter baumannii OXA-58; details: derivative at 10 μg/mL; AB1057 OXA-58
Method: as §1

[31] = test system: ECL1002 Enterobacter cloacae Hyper AmpC expression; details: derivative at 10 μg/mL
Method: as §1

Q: `CC(=O)N[C@H]1CCC(CC(=O)O)OB1O` (stereo partly drawn) [Compound 3, 2-((3R)-3-acetamido-2-hydroxy-1,2-oxaborinan-6-yl)acetic acid] was tested. Which “Ceftazidime MIC with cyclic boronic acid ester derivative” value (“Ceftazidime MIC” below) [1] did it give?
A: Its value is “Y (MIC of greater than 1 μg/mL to 8 μg/mL)”.

Q: And the “Ceftazidime MIC” value [2]?
A: The value was “Y (MIC of greater than 1 μg/mL to 8 μg/mL)”.

Q: And the “Ceftazidime MIC” value [3]?
A: Its value is “Z (MIC of greater than 8 μg/mL)”.

Q: And the “Ceftazidime MIC” value [4]?
A: Its value is “X (MIC of 1 μg/mL or less)”.

Q: What about the “Ceftazidime MIC” value [5] of the same compound?
A: Its value is “Z (MIC of greater than 8 μg/mL)”.

Q: And the “Ceftazidime MIC” value [6]?
A: The value was “Z (MIC of greater than 8 μg/mL)”.

Q: And the “Ceftazidime MIC” value [7]?
A: Its value is “Z (MIC of greater than 8 μg/mL)”.

Q: And the “Ceftazidime MIC” value [8]?
A: The value was “Z (MIC of greater than 8 μg/mL)”.

Q: And the “Ceftazidime MIC” value [9]?
A: The value was “X (MIC of 1 μg/mL or less)”.

Q: What about the “Ceftazidime MIC” value [10] of the same compound?
A: Its value is “Z (MIC of greater than 8 μg/mL)”.

Q: What about the “Ceftazidime MIC” value [11] of the same compound?
A: The value was “Z (MIC of greater than 8 μg/mL)”.

Q: And the “Ceftazidime MIC” value [12]?
A: Its value is “Z (MIC of greater than 8 μg/mL)”.

Q: And the “Ceftazidime MIC” value [13]?
A: Its value is “Z (MIC of greater than 8 μg/mL)”.

Q: And the “Ceftazidime MIC” value [14]?
A: The value was “Z (MIC of greater than 8 μg/mL)”.

Q: What about the “Ceftazidime MIC” value [15] of the same compound?
A: Its value is “Y (MIC of greater than 1 μg/mL to 8 μg/mL)”.

Q: And the “Ceftazidime MIC” value [16]?
A: Its value is “Z (MIC of greater than 8 μg/mL)”.

Q: And the “Ceftazidime MIC” value [17]?
A: Its value is “Z (MIC of greater than 8 μg/mL)”.

Q: And the “Ceftazidime MIC” value [18]?
A: Its value is “Z (MIC of greater than 8 μg/mL)”.

Q: What about the “Ceftazidime MIC” value [19] of the same compound?
A: Its value is “Y (MIC of greater than 1 μg/mL to 8 μg/mL)”.

Q: What about the “Ceftazidime MIC” value [20] of the same compound?
A: Its value is “Z (MIC of greater than 8 μg/mL)”.

Q: What about the “Ceftazidime MIC” value [21] of the same compound?
A: Its value is “Z (MIC of greater than 8 μg/mL)”.

Q: What about the “Ceftazidime MIC” value [22] of the same compound?
A: The value was “Z (MIC of greater than 8 μg/mL)”.

Q: And the “Ceftazidime MIC” value [23]?
A: The value was “Z (MIC of greater than 8 μg/mL)”.

Q: What about the “Ceftazidime MIC” value [24] of the same compound?
A: Its value is “Z (MIC of greater than 8 μg/mL)”.

Q: And the “Ceftazidime MIC” value [25]?
A: The value was “Z (MIC of greater than 8 μg/mL)”.

Q: And the “Ceftazidime MIC” value [26]?
A: Its value is “Z (MIC of greater than 8 μg/mL)”.

Q: What about the “Ceftazidime MIC” value [27] of the same compound?
A: Its value is “Y (MIC of greater than 1 μg/mL to 8 μg/mL)”.

Q: And the “Ceftazidime MIC” value [28]?
A: The value was “Y (MIC of greater than 1 μg/mL to 8 μg/mL)”.

Q: What about the “Ceftazidime MIC” value [29] of the same compound?
A: The value was “Y (MIC of greater than 1 μg/mL to 8 μg/mL)”.

Q: What about the “Ceftazidime MIC” value [30] of the same compound?
A: Its value is “Z (MIC of greater than 8 μg/mL)”.

Q: And the “Ceftazidime MIC” value [31]?
A: The value was “Z (MIC of greater than 8 μg/mL)”.

Q: With `O=C(O)C[C@@H]1CC[C@H](NC(=O)Cc2ccccc2)B(O)O1` [Compound 6, 2-((3R,6S)-2-hydroxy-3-(2-phenylacetamido)-1,2-oxaborinan-6-yl)acetic acid] as the compound, how does the “Ceftazidime MIC” value [1] read?
A: The value was “X (MIC of 1 μg/mL or less)”.

Q: And the “Ceftazidime MIC” value [2]?
A: The value was “X (MIC of 1 μg/mL or less)”.

Q: And the “Ceftazidime MIC” value [3]?
A: The value was “Z (MIC of greater than 8 μg/mL)”.

Q: And the “Ceftazidime MIC” value [4]?
A: The value was “X (MIC of 1 μg/mL or less)”.

Q: What about the “Ceftazidime MIC” value [5] of the same compound?
A: Its value is “Z (MIC of greater than 8 μg/mL)”.

Q: What about the “Ceftazidime MIC” value [6] of the same compound?
A: The value was “Z (MIC of greater than 8 μg/mL)”.

Q: What about the “Ceftazidime MIC” value [7] of the same compound?
A: The value was “Y (MIC of greater than 1 μg/mL to 8 μg/mL)”.

Q: What about the “Ceftazidime MIC” value [8] of the same compound?
A: The value was “Y (MIC of greater than 1 μg/mL to 8 μg/mL)”.

Q: What about the “Ceftazidime MIC” value [9] of the same compound?
A: The value was “X (MIC of 1 μg/mL or less)”.

Q: What about the “Ceftazidime MIC” value [10] of the same compound?
A: Its value is “Y (MIC of greater than 1 μg/mL to 8 μg/mL)”.

Q: And the “Ceftazidime MIC” value [11]?
A: Its value is “Z (MIC of greater than 8 μg/mL)”.

Q: And the “Ceftazidime MIC” value [12]?
A: The value was “Y (MIC of greater than 1 μg/mL to 8 μg/mL)”.

Q: What about the “Ceftazidime MIC” value [13] of the same compound?
A: The value was “Z (MIC of greater than 8 μg/mL)”.

Q: What about the “Ceftazidime MIC” value [14] of the same compound?
A: Its value is “Z (MIC of greater than 8 μg/mL)”.

Q: And the “Ceftazidime MIC” value [15]?
A: Its value is “Y (MIC of greater than 1 μg/mL to 8 μg/mL)”.

Q: And the “Ceftazidime MIC” value [16]?
A: The value was “Y (MIC of greater than 1 μg/mL to 8 μg/mL)”.

Q: And the “Ceftazidime MIC” value [17]?
A: Its value is “Z (MIC of greater than 8 μg/mL)”.

Q: What about the “Ceftazidime MIC” value [18] of the same compound?
A: The value was “Z (MIC of greater than 8 μg/mL)”.

Q: And the “Ceftazidime MIC” value [19]?
A: Its value is “X (MIC of 1 μg/mL or less)”.

Q: What about the “Ceftazidime MIC” value [20] of the same compound?
A: Its value is “Z (MIC of greater than 8 μg/mL)”.

Q: What about the “Ceftazidime MIC” value [21] of the same compound?
A: The value was “Z (MIC of greater than 8 μg/mL)”.

Q: What about the “Ceftazidime MIC” value [22] of the same compound?
A: Its value is “Z (MIC of greater than 8 μg/mL)”.

Q: And the “Ceftazidime MIC” value [23]?
A: Its value is “Y (MIC of greater than 1 μg/mL to 8 μg/mL)”.

Q: And the “Ceftazidime MIC” value [24]?
A: Its value is “Z (MIC of greater than 8 μg/mL)”.

Q: What about the “Ceftazidime MIC” value [25] of the same compound?
A: The value was “Z (MIC of greater than 8 μg/mL)”.

Q: What about the “Ceftazidime MIC” value [26] of the same compound?
A: Its value is “Y (MIC of greater than 1 μg/mL to 8 μg/mL)”.

Q: And the “Ceftazidime MIC” value [27]?
A: The value was “Y (MIC of greater than 1 μg/mL to 8 μg/mL)”.

Q: What about the “Ceftazidime MIC” value [28] of the same compound?
A: Its value is “Y (MIC of greater than 1 μg/mL to 8 μg/mL)”.

Q: What about the “Ceftazidime MIC” value [29] of the same compound?
A: Its value is “Y (MIC of greater than 1 μg/mL to 8 μg/mL)”.

Q: And the “Ceftazidime MIC” value [30]?
A: The value was “Z (MIC of greater than 8 μg/mL)”.

Q: What about the “Ceftazidime MIC” value [31] of the same compound?
A: The value was “Y (MIC of greater than 1 μg/mL to 8 μg/mL)”.
